The source of these data is patent US12528814B2, “Bifunctional degraders of interleukin-1 receptor-associated kinases and therapeutic use thereof” (NURIX THERAPEUTICS, INC., priority 2020, dated 2026).

Entries after “also recorded” stand apart in the source; their conditions may differ. Like-named read-outs stand apart in the source and are kept apart here. A value given as a limit tells only on which side of the number the result lay.

One assay deals with IRAK4 (Homo sapiens (Human), UniProt Q9NWZ3). The experiment in a line: IRAK4 Biochemical HTRF Kinase Assay. The method, boiled down: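 IC50 values derive from non-linear regression of sixteen concentrations in duplicate. Kinase reaction ran 90 min at ambient temperature after adding 5 μM STK-S1 substrate, 10 mM ATP and 10 mM MgCl2 (reaction-solution levels, pre-dilution to 10 μl); phospho-peptide detected by HTRF after 60 min.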
IRAK4, sequence (Q9NWZ3 whole entry, species assumed): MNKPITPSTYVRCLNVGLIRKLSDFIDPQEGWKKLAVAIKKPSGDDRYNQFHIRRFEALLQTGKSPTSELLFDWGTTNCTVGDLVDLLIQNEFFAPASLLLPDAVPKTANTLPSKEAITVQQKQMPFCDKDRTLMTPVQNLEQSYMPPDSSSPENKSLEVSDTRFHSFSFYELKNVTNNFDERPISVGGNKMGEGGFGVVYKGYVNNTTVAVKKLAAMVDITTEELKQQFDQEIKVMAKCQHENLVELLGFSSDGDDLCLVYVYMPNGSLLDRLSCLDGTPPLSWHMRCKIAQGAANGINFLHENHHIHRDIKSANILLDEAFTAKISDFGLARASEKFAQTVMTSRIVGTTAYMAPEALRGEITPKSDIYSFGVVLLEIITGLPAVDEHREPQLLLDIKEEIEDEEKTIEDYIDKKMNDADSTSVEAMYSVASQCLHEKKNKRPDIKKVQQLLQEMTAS
A general note: In TR-FRET formats the signal depends on donor and acceptor labels being close together.

For the next assay, the target named is Aiolos (Homo sapiens (Human), UniProt Q96SW2+Q9UKT9). Kind of assay: Flow Cytometry-Based Assay for Aiolos Degradation. The format is cell-based. Conditions: 24 hours; for DC50: Jurkat cells (Clone E6-1); for Aiolos (CRBN neosubstrate) degradation, in words: Jurkat cells. How it is done: (§1) Flow Cytometry-Based Assay for Aiolos and Ikaros Degradation
Aiolos, sequence (Q9UKT9 whole entry): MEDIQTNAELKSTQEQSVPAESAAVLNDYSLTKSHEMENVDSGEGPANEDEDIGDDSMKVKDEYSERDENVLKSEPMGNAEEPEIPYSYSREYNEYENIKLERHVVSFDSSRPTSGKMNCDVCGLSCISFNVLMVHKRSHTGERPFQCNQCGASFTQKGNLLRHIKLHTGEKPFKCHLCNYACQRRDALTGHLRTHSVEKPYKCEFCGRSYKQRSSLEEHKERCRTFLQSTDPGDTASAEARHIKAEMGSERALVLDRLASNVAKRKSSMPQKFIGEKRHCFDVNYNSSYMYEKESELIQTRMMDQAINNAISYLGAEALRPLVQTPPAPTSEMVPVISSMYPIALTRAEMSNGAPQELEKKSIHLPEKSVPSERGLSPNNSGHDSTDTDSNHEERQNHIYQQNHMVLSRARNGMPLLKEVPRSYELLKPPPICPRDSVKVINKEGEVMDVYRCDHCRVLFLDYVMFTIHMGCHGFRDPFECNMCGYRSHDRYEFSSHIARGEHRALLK
Aiolos, sequence (Q96SW2 whole entry): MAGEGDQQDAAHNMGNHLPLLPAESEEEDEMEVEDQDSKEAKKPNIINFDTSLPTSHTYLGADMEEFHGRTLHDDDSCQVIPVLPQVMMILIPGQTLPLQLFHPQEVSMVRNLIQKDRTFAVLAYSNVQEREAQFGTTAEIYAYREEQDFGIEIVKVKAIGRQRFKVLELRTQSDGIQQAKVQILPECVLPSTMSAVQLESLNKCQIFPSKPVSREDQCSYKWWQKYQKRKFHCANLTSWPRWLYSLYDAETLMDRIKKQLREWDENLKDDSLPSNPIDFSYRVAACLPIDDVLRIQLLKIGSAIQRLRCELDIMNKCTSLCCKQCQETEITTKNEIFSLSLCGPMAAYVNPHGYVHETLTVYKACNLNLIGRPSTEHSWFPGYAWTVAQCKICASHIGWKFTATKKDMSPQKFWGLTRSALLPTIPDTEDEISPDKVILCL
Aiolos, sequence (Q16531 whole entry partner): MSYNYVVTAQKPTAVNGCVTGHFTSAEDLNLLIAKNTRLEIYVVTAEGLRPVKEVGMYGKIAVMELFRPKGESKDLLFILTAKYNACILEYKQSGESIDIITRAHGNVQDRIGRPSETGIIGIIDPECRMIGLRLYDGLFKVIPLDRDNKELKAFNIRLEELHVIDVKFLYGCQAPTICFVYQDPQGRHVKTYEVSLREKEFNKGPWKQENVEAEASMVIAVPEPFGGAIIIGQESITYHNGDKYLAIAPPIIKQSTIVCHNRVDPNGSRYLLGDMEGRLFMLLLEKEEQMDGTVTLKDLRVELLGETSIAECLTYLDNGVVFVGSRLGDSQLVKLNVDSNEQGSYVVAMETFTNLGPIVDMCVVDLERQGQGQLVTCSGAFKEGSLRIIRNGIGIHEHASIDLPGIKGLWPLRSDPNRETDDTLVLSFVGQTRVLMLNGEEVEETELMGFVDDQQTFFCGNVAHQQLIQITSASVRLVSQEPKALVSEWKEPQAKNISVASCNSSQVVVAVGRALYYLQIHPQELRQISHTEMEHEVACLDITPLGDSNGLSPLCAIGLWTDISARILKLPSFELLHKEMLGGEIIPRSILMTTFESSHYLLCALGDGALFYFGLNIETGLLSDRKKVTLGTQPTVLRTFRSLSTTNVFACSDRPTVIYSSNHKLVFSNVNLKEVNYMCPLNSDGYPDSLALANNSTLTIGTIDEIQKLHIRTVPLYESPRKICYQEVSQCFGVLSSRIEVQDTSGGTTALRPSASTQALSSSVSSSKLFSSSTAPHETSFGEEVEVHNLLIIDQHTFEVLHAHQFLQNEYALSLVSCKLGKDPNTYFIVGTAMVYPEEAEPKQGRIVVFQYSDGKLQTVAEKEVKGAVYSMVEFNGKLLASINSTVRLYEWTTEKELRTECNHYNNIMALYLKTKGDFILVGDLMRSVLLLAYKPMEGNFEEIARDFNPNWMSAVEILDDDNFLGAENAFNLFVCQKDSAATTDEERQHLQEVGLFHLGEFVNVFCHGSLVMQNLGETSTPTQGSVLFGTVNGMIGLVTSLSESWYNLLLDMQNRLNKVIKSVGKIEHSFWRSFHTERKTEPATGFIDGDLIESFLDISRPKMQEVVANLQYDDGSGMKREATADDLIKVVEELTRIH
(§2) Jurkat cells (Clone E6-1) were treated with DMSO or compound for 24 hours and then fixed and permeabilized using a Foxp3/Transcription Factor Fixation/Permeabilization Kit (eBioscience, cat. no. 00-5523). Cells were stained with fluorophore-conjugated antibodies against Ikaros (Biolegend 368414) and Aiolos (Biolegend, cat. no. 371106). An additional set of DMSO-treated cells was stained with fluorophore-conjugated isotype control antibodies (Biolegend, cat. no. 400254 and 400136). Stained cells were run on an Attune N×T Acoustic Focusing Flow Cytometer (Thermo-Fisher, cat. no. A29004), and data was analyzed using FlowJo (v10.5.3) and GraphPad Prism (v7.00) software. Single cells were gated, and the geometric mean fluorescence intensities (MFIs) of Ikaros and Aiolos were calculated. The MFI of the isotype control was calculated for each analyte and used to quantify background staining. Percent Ikaros or Aiolos degradation was calculated for each compound-treated sample using the following equation: % Degradation=[…]
In general terms: Flow cytometry measures light scatter and fluorescence of single cells or particles in a stream.

In another assay the target is Ikaros (Homo sapiens (Human), UniProt Q13422+Q96SW2). The experiment in a line: Flow Cytometry-Based Assay for Ikaros Degradation. The format is cell-based. Conditions: 24 hours; for DC50: Jurkat cells (Clone E6-1); for Ikaros (CRBN neosubstrate) degradation, in words: Jurkat cells. The protocol:
as §1, §2

A further assay addresses IRAK1 (Homo sapiens (Human), UniProt P51617). The experiment in a line: Western Assay for IRAK1 Degradation. Format: cell-based. Particulars: wild-type Jurkat cells, 4 hrs. How it is done:
Biological Example 4 Western Assay for IRAK4, IRAK1 and GSPT1 Degradation
DMSO was stamped into wells A12-H12 at 500 nL/well (NC, Negative Control, maximum signal). […] Following incubation, plates were centrifuged for 5 min at 1600 rpm. Media was removed and cell pellets were lysed in 50 μL lysis buffer (RIPA buffer (Fisher, PI89901), cOmplete Mini EDTA-free protease inhibitor (Sigma 11836170001), Protease Inhibitor Cocktail (Sigma, P2714), Phosphatase Inhibitor Cocktail 2 and 3 (Sigma, P5726 and P0044), Benzonase (Sigma, E1014)). Cells were lysed overnight at −20° C. Plates were centrifuged for 5 min at 1600 rpm and lysate supernatants were transferred to storage plates. Protein levels were determined by BCA Assay performed according to manufacturer's protocol (EMD Millipore, cat. no. 71285-3). Samples were combined with (4×) LDS Sample Buffer and (10×) Reducing Agent and H2O to equally load 10 ug protein per lane of a 26-well NuPAGE 4-12% Bis-Tris protein gel (1.0 mm, Thermo cat. no. NP0326). Samples were separated by running gels at constant 200 V in NuPAGE MES SDS Running Buffer. Following electrophoresis, proteins were transferred to nitrocellulose membranes using an iBlot Gel Transfer Device and iBlot Gel Transfer Stacks (Thermo cat. no. IB21001 and IB301001) and transfer method PO (20V 1 min, 23V 4 min, 25V 2 min). Membranes were blocked for 1 hr in 5% milk solution (TBS (0.2% Tween-20)).
Following blocking, membranes were incubated with primary antibody overnight at 4° C. with gentle shaking. The primary antibodies and dilutions used were as follows: IRAK4—abcam ab3200612, 1:500; IRAK1—Cell Signaling Technologies D51G7 #4504, 1:500; GSPT1—Cell Signaling Technologies #14980, 1:500). Blots were washed 3× in TBS (0.2% Tween-20), 5-10 min per wash. Following washes, blots were incubated in secondary HRP-conjugated antibody (Promega anti-Rabbit IgG (H+L) HRP, cat. no. W4011), 1:5000 in 5% milk solution (TBS (0.2% Tween-20)), for 1 hr at room temperature with gentle shaking. Blots were washed 3× in TBS (0.2% Tween-20), 5-10 min per wash. Blots were incubated with 1:1 mix of ECL reagents 1 & 2 (Amersham ECL Western Blotting Detection Reagent, cat. no. RPN2106) for 2-3 min at room temperature. Bands were visualized using a Protein Simple imager. Blots were then re-probed with a combination of anti-actin antibody (Sigma Monoclonal Mouse Anti-3-Actin (clone AC-15), cat. no. A5441) and secondary HRP-conjugated antibody (Promega anti-Mouse IgG (H+L) HRP, cat. no. W4021) and similar steps were taken for incubation, wash, detection and visualization steps as above. The data was analyzed using Alpha View software. The densitometric reading for each sample band was normalized to that of the corresponding actin band per lane.

Where [1] appears, read: Table 2, CRBN-targeting compounds, read-out: IRAK4 biochemical IC50.
[2] abbreviates: Table 3, VHL-targeting compounds, read-out: IRAK4 biochemical IC50.
[3] abbreviates: Table 4, read-out: IRAK4 HTRF biochemical: IC50.
[4] abbreviates: Table 5, multiple runs, read-out: IRAK4 HTRF biochemical: IC50.

IRAK1, sequence (P51617 whole entry): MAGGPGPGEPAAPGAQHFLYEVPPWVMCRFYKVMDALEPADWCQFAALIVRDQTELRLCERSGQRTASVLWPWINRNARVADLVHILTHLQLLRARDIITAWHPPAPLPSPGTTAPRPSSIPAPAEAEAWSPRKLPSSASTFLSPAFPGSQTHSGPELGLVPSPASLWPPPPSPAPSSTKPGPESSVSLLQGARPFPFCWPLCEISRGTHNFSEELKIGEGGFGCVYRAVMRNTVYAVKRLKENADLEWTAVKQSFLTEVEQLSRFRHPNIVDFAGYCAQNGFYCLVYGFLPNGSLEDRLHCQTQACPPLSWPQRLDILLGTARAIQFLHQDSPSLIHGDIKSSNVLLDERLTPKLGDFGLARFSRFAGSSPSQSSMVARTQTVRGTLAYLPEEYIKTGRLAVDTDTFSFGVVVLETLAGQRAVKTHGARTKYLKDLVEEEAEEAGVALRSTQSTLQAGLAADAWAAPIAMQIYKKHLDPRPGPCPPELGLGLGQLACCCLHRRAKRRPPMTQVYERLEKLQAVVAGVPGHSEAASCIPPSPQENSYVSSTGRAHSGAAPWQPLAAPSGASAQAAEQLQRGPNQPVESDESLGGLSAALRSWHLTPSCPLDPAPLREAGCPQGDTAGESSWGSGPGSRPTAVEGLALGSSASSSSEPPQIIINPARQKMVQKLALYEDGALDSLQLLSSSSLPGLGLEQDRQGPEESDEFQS
Ikaros, sequence (Q13422 whole entry): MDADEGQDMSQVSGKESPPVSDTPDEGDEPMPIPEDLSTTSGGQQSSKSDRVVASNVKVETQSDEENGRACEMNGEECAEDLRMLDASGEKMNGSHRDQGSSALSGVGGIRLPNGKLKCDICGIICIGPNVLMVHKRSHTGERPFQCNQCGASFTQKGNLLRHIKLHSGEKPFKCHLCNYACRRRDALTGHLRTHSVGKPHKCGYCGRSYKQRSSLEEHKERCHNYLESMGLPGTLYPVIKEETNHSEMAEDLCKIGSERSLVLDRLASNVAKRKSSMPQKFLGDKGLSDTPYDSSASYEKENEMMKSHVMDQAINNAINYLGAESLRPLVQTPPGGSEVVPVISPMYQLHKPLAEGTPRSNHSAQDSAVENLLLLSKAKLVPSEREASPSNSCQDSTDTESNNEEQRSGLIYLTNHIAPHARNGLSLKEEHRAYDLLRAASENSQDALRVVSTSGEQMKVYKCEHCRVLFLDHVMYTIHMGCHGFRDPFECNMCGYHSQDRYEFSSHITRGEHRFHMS
Ikaros, sequence (Q96SW2 whole entry): as the sequence (Q96SW2 whole entry) above
Ikaros, sequence (Q16531 whole entry partner): as the sequence (Q16531 whole entry partner) above

The term IC50 denotes the midpoint of a concentration-inhibition curve. As a reminder, the DC50 is the concentration giving 50% degradation. For `NC(=O)c1nn(-c2ccc(C(=O)NCCOCCOCCNc3cccc4c3C(=O)N(C3CCC(=O)NC3=O)C4=O)cc2)cc1NC(=O)c1coc(-c2ccnc(NCC(F)(F)F)c2)n1` (stereo not drawn) [Comparative Compound a2, reference compound], on IRAK4 (setting [1]), the IC50 came out at 1.2 nM. Also, at Aiolos, the DC50 came to 20 nM; the “Aiolos (CRBN neosubstrate) degradation, in words” value (shortened to “Aiolos”) was “induced neosubstrate degradation; also recorded: degraded both Ikaros and Aiolos”. Moreover, at Ikaros, it took 20 nM to reach half-maximal degradation (DC50); the “Ikaros (CRBN neosubstrate) degradation, in words” value (from here on “Ikaros”) was “induced neosubstrate degradation; also recorded: degraded both Ikaros and Aiolos”. At IRAK1, the DC50 was greater than 10000 nM.
On to `CC[C@@H]1[C@H](F)C(=O)N[C@@H]1COc1ncc(C#CCN2CCC3(CC2)CCN(c2ncc(C(=O)N[C@H](C(=O)N4C[C@H](O)C[C@H]4C(=O)NCc4ccc(-c5scnc5C)cc4)C(C)(C)C)cn2)CC3)c2cc(C(N)=O)c(OC)cc12` [Comparative b1, reference compound], for which the IC50 at IRAK4 (setting [2]) is 2.3 nM. The DC50 is greater than 5000 nM on Aiolos, greater than 5000 nM on Ikaros and greater than 10000 nM at IRAK1.
Consider `CC(C)Nc1cc(-c2ccc3cc(C#N)cnn23)ncc1-c1nnc(N2CCN(C(=O)C3CCN(Cc4ccc5c(c4)C(=O)N(C4CCC(=O)NC4=O)C5=O)CC3)CC2)s1` (stereo not drawn) [Example 13, 7-(5-(5-(4-(1-((2-(2,6-dioxopiperidin-3-yl)-1,3-dioxoisoindolin-5-yl)methyl)piperidine-4-carbonyl)piperazin-1-yl)-1,3,4-thiadiazol-2-yl)-4-(isopropylamino)pyridin-2-yl)pyrrolo[1,2-b]pyridazine-3-carbonitrile], for which the IC50 at IRAK4 (setting [1]) came out at 0.5 nM; on IRAK4 (setting [3]), 0.5 nM; on IRAK4 (setting [4]), 0.8 nM. Moreover, the DC50 is greater than 5000 nM at Aiolos, greater than 5000 nM on Ikaros and greater than 10000 nM on IRAK1. Besides, the “Aiolos” value on Aiolos is “none of Compounds 13, 24, 47, and 35 displayed neosubstrate degradation”. On Ikaros, the “Ikaros” value was “none of Compounds 13, 24, 47, and 35 displayed neosubstrate degradation”.
In the case of `CC(C)Nc1cc(-c2ccc3cc(C#N)cnn23)ncc1-c1nnc(N2CCN(C(=O)C3CCN(CC4CCN(c5ccc(-c6nn(C7CCC(=O)NC7=O)c(=O)n6C)cc5)CC4)CC3)CC2)s1` (stereo not drawn) [Example 24, 7-(5-(5-(4-(1-((1-(4-(1-(2,6-dioxopiperidin-3-yl)-4-methyl-5-oxo-4,5-dihydro-1H-1,2,4-triazol-3-yl)phenyl)piperidin-4-yl)methyl)piperidine-4-carbonyl)piperazin-1-yl)-1,3,4-thiadiazol-2-yl)-4-(isopropylamino)pyridin-2-yl)pyrrolo[1,2-b]pyridazine-3-carbonitrile], the IC50 on IRAK4 (setting [1]), on IRAK4 (setting [3]) and on IRAK4 (setting [4]) was 0.6 nM throughout. Also, the results for the DC50 at Aiolos, at Ikaros and on IRAK1 were greater than 5000 nM, greater than 5000 nM and greater than 10000 nM, respectively. Besides, at Aiolos, the “Aiolos” value is “none of Compounds 13, 24, 47, and 35 displayed neosubstrate degradation”. On Ikaros, the “Ikaros” value was “none of Compounds 13, 24, 47, and 35 displayed neosubstrate degradation”.
In the case of `Cc1ncsc1-c1ccc(CNC(=O)[C@@H]2C[C@@H](O)CN2C(=O)[C@@H](NC(=O)CCCC(=O)N2CCN(c3nnc(-c4cnc(-c5ccc6cc(C#N)cnn56)cc4NC(C)C)s3)CC2)C(C)(C)C)cc1` [Example 35, (2S,4R)-1-((S)-2-(5-(4-(5-(6-(3-cyanopyrrolo[1,2-b]pyridazin-7-yl)-4-(isopropylamino)pyridin-3-yl)-1,3,4-thiadiazol-2-yl)piperazin-1-yl)-5-oxopentanamido)-3,3-dimethylbutanoyl)-4-hydroxy-N-(4-(4-methylthiazol-5-yl)benzyl)pyrrolidine-2-carboxamide], the IC50 on IRAK4 (setting [2]), at IRAK4 (setting [3]) and on IRAK4 (setting [4]) was 5.2 nM throughout. Besides, the DC50 is greater than 5000 nM at Aiolos, greater than 5000 nM on Ikaros and greater than 10000 nM on IRAK1. For the same compound, the “Aiolos” value at Aiolos was “none of Compounds 13, 24, 47, and 35 displayed neosubstrate degradation”. On Ikaros, the “Ikaros” value is “none of Compounds 13, 24, 47, and 35 displayed neosubstrate degradation”.
`Cc1ncsc1-c1ccc(CNC(=O)[C@@H]2C[C@@H](O)CN2C(=O)[C@@H](NC(=O)C2(F)CC2)C(C)(C)C)c(OCCOCCC(=O)N2CCN(c3nnc(-c4cnc(-c5ccc6cc(C#N)cnn56)cc4NC(C)C)s3)CC2)c1` [Example 47, (2S,4R)—N-(2-(2-(3-(4-(5-(6-(3-cyanopyrrolo[1,2-b]pyridazin-7-yl)-4-(isopropylamino)pyridin-3-yl)-1,3,4-thiadiazol-2-yl)piperazin-1-yl)-3-oxopropoxy)ethoxy)-4-(4-methylthiazol-5-yl)benzyl)-1-((S)-2-(1-fluorocyclopropane-1-carboxamido)-3,3-dimethylbutanoyl)-4-hydroxypyrrolidine-2-carboxamide]: the IC50 at IRAK4 (setting [2]) was 7.3 nM; at IRAK4 (setting [3]) it was 7.3 nM; on IRAK4 (setting [4]), 5.8 nM. Also, the DC50 is greater than 5000 nM on Aiolos, greater than 5000 nM at Ikaros and greater than 10000 nM on IRAK1. Moreover, the “Aiolos” value on Aiolos was “none of Compounds 13, 24, 47, and 35 displayed neosubstrate degradation”. Further, the “Ikaros” value on Ikaros is “none of Compounds 13, 24, 47, and 35 displayed neosubstrate degradation”.
